Measured values: US12492403B2, “Aptamers and the use thereof in the treatment of cancer” (FUNDACIÓN PARA LA INVESTIGACIÓN BIOMÉDICA DEL HOSPITAL …, priority 2018, dated 2025)

Columns and labels:
4T1 cells = assay: Transwell invasion assay in 4T1 cells; type: cell-based, mouse; conditions: 500 nM, 48 h invasion
Protocol: FIG. 21A-21E. In vivo efficacy of apMNKQ2 in a mouse metastatic model with an orthotopic xenograft of 4T1 cells. (A) Effect of apMNKQ2 aptamer on the proliferation of 4T1 cells (mouse breast tumor line). 4T1 cells were seeded in p96 at a density of 1.5×10^3 cells/well. […] The graph (FIG. 21A) represents the means±SEM of 3 independent experiments. (B) Effect of apMNKQ2 aptamer on migration and invasion of 4T1 cells. Cells were seeded in p6 at a density of 2×10^5 cells/well and transfected with 500 nM apMNKQ2 at 24 hours. […] At 24 hours (migration) or 48 h (invasion), the transwell membranes were stained with Hoechst and the cells that had passed through the fluorescence microscopy were quantified. […] The number of metastases is analyzed by the reverse staining method (with Chinese ink) and the metastases grouped according to their size in four groups (0.5, 1, 2 and >2). […]
Cell migration and invasion assays were performed using transwell (Corning, USA). […] After that time, they were collected, counted, and reseeded 4×10^4 cells in 300 μl of a serum-free complete medium inside the transwell (migration) or a transwell on which a layer of 100 μL of Matrigel (Corning, USA) (invasion) had previously been polymerized. […] Finally, two washes in PBS were performed, and 5 photographs of each membrane of the transwell were taken using a fluorescence microscope (Olympus IX70). […]

MNK1a = MNK1a (Homo sapiens, UniProt Q9BUB5); assay: ELONA binding of biotin-labeled aptamer
Protocol: (§1) FIGS. 5A-5C. Characterization of the interaction of aptamer apMNKQ2 with MNK1 by means of ELONA. (A) ELONAs in which GST-MNKs previously adsorbed in 96-well plates at 0.2 μg/well (3 pmol/well) with apMNKQ2-Bio at 20 nM were incubated (FIG. 5A). The bars represent the mean±SEM of at least 3 independent experiments (*p<0.05, **p<0.01, and ***p<0.001 with respect to the blank and c p<0.05, b p<0.01, and a p<0.001 MNK1b with respect to MNK1a). ELONAs in which concentrations of 0 to 500 nM of apMNKQ2 were incubated (FIGS. 5A and 5C).
(§2) To determine the binding of the aptamers to MNK1a or MNK1b, 200 ng of protein/well diluted in a coating solution (KPL, USA) in a final volume of 100 μL/well were added to a Maxisorp Nunc 96-well ELISA plate (ThermoFisher Scientific, USA). The plate was incubated overnight at 4° C. under stirring. Aptamers were then added at the corresponding concentration according to the assay, in a final volume of 100 μL/well of BSA-free aptamer buffer for 1 hour at 37° C. under stirring. All the aptamers used were labeled with biotin and had been previously denatured at 90° C. for 10 minutes and then kept at 4° C. for 10 minutes in the BSA-free aptamer buffer. To detect the binding of the aptamer to the protein, 100 μL/well of streptavidin-peroxidase (GE Healthcare, United Kingdom) diluted 1/1000 in the aptamer buffer at 37° C. for 1 hour under stirring were added. To develop the plate, 100 μL/well of ABTS solution (Roche, Switzerland) were added, and it was incubated in darkness at room temperature, with measurements being taken every 10 minutes at a wavelength of 405 nm in an Infinite F200 spectrophotometer (TECAN, Switzerland).

MNK1b = MNK1b (Homo sapiens, UniProt Q9BUB5); assay: ELONA binding of biotin-labeled aptamer
Protocol: as §1, §2

MNK1aΔ77 = MNK1aΔ77 (Homo sapiens, UniProt Q9BUB5); assay: ELONA binding of biotin-labeled aptamer; conditions: apMNKQ2-Bio at 20 nM, GST-MNK1aΔ77 0.2 μg/well
Protocol: as §1, §2

MNK1ΔCt = MNK1ΔCt (Homo sapiens, UniProt Q9BUB5); assay: ELONA binding of biotin-labeled aptamer; conditions: apMNKQ2-Bio at 20 nM, GST-MNK1ΔCt 0.2 μg/well
Protocol: as §1, §2

Sequence of MNK1b (Q9BUB5 1-347 isoform Q9BUB5-3): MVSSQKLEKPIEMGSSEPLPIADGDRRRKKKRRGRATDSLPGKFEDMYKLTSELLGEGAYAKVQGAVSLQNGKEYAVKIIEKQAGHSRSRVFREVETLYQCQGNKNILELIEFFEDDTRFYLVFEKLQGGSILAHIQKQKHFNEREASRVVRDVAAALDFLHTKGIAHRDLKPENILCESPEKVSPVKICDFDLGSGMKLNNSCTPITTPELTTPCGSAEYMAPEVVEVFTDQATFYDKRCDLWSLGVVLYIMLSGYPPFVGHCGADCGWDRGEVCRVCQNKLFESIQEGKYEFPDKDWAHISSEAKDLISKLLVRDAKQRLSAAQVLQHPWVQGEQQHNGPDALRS
Sequence of MNK1a (Q9BUB5 1-424 isoform Q9BUB5-2): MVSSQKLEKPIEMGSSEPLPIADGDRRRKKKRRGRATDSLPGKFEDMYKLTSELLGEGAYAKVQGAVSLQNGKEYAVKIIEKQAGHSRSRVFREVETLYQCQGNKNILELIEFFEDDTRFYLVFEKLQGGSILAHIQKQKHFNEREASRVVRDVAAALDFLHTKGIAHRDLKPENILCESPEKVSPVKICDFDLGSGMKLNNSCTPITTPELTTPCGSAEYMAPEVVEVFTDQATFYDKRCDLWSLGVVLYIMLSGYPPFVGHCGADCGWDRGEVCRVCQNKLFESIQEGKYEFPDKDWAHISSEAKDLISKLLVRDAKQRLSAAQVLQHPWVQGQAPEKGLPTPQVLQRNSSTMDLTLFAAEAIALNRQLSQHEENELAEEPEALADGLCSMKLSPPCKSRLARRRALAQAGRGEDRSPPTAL
Sequence of MNK1ΔCt (Q9BUB5 1-335 isoform Q9BUB5-2 limits assumed): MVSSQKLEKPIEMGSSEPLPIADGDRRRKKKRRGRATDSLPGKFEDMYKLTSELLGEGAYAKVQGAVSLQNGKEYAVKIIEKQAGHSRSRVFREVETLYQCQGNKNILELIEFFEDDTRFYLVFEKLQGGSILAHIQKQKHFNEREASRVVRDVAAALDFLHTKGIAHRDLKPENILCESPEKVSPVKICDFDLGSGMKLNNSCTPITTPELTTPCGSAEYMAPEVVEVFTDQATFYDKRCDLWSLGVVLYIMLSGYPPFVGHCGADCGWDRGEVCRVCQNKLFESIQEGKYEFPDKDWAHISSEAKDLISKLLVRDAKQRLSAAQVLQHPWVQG
Sequence of MNK1aΔ77 (Q9BUB5 1-347 isoform Q9BUB5-2 limits assumed): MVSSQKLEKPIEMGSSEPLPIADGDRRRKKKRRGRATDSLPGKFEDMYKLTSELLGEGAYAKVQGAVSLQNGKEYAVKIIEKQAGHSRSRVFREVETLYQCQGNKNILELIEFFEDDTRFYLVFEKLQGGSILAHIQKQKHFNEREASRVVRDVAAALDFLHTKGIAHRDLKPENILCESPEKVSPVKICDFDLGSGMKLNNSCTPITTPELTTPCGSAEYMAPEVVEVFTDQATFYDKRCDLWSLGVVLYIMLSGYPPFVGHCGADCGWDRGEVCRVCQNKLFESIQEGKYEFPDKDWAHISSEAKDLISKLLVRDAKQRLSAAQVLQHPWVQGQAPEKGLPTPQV

5′TGGGGTGGGCGGGCGGGGGTGGGGGTGGT-3′ (DNA, backbone and methylation of C not given here; further chemistry not fully specified) [apMNKQ2]
invasion of 4T1 cells (4T1 cells): significantly decrease
Kd (MNK1a; ELONA, biotin-labeled aptamer 0 to 500 nM, GST-MNK1a): 66.1 ± 20.2 nM
binding (ELONA) (MNK1a; apMNKQ2-Bio at 20 nM, GST-MNK1a 0.2 μg/well): binds significantly
Kd (MNK1b; ELONA, biotin-labeled aptamer 0 to 500 nM, GST-MNK1b): 15.5 ± 2.36 nM
binding (ELONA) (MNK1b; apMNKQ2-Bio at 20 nM, GST-MNK1b 0.2 μg/well): binds significantly
affinity for MNK1b relative to MNK1a (MNK1b; from ELONA KD values): four-fold higher
binding (ELONA) (MNK1aΔ77): not significant
binding (ELONA) (MNK1ΔCt): not significant
